Experimental data taken from the NIST ThermoML archive (doi:10.1021/je050060q).

Conditions: Liquid; for mass density: Pycnometric method

CCCCCC [hexane]
Conditions	mass density [kg/m3]	speed of sound [m/s]
293.15 K	659.44	1098
298.15 K	654.93	1076
303.15 K	650.36	1054
308.15 K	645.74	1032
313.15 K	641.08	1010
318.15 K	636.37	988
323.15 K	631.61	966
328.15 K	626.81	944
333.15 K	621.95	921
338.15 K	–	900
343.15 K	–	878
348.15 K	–	856
353.15 K	–	834
358.15 K	–	812
363.15 K	–	790
368.15 K	–	768
373.15 K	–	747

CCCCCCCCCCCCCCCC [hexadecane]
Conditions	mass density [kg/m3]	speed of sound [m/s]
293.15 K	773.38	1357
298.15 K	769.97	1338
303.15 K	766.55	–
308.15 K	763.12	1301
313.15 K	759.68	1283
318.15 K	756.24	1265
323.15 K	752.79	1246
328.15 K	749.33	1228
333.15 K	745.86	1211
338.15 K	742.39	1193
343.15 K	738.91	1176
348.15 K	735.42	1158
353.15 K	731.93	1141
358.15 K	728.43	1124
363.15 K	724.92	1107
368.15 K	721.4	1090
373.15 K	717.88	1074
